Assay results taken from patent US20150104870A1, “NEURONAL DIFFERENTIATION PROMOTER” (KEIO UNIVERSITY, priority 2012, published 2015).
Entries after “also recorded” stand apart in the source; their conditions may differ.

Key:
p2 neurospheres = test: Mouse ESC-derived neurosphere differentiation assay; type: cell-based; details: for neuronal differentiation (βIII-tubulin-positive neurons) of p2 neurospheres: lentiviral overexpression in NSCs from p0 stage, differentiated at p2, control miR-LacZ
Procedure: (§1) Mouse ESC (EB3) culture, EB formation, neurosphere formation and differentiation of neurosphere were performed as previously described (Nat. Neurosci. 11, 1014-1023 (2008)). Human NSCs were grown as previously described (J. Neurosci. Res. 69, 869-879 (2002); J. Neurosci. Res. 87, 307-317 (2009)) without […] growth factor (EGF), and allowed to differentiate on a substrate-coated coverslips in the absence of mitogen for 14 days, a procedure similar to that used for mouse neurosphere.
(§2) Immunocytechemistry and immunohistochemistry were performed as previously described (Nat. Neurosci. 11, 1014-1023 (2008)) using antibodies against βIII-tubulin, NeuN (neural marker), glial fibrillary acidic protein (GFAP, astrocyte marker), and haemagglutinin (HA).

developing mouse brain = test: In utero lentiviral microinjection, fate of infected cells in cerebral cortex; type: in vivo; details: lentivirus injected in utero at E10.5, examined at P30
Procedure: Experiments were performed using ICR mice. All aspects of animal care and treatment were carried according to the guidelines of the Experimental Animal Committee of Keio University School of Medicine. In utero microinjection of lentivirus particles into the brain of E10.5 ICR mouse was guided by an in vivo ultrasound real-time scanner (Vevo660; VisualSonics).
as §2

Gfap promoter = test: Bisulfite sequencing of CpG methylation status; type: cell-based, mouse
Text: The methylation frequency of 10 CpG sequences on the Gfap promoter, including the CpG site in the STAT3-binding sequence as indicated by the arrows, was examined. The graphs show the percentages of methylated CpG cytosines in the whole Gfap promoter (left graph) and the STAT3-binding region (right graph) (t test, n (≧10 clones)=3, NS (not significant), P>0.05). Bars and error bars represent the mean+s.e.m for each condition.

[1] = system: miR-17 binding site in 3′UTR of p38 mRNA; test: DsRed-Express2 reporter assay (Mp38 sensor) in HEK293 cells; type: cell-based, human; details: HEK293 stable transformant, FACS one week after lentivirus, compared to miR-LacZ
Text: FIG. 17 is a graph showing that miR-17 binds to a binding site in the 3′ untranslated region (UTR) of mouse p38 mRNA. […] The miR-17 binding site in 3′UTR of p38 mRNA (to be referred to as “Mp38 sensor”; 2970-2992 of NM_011951) was cloned into a mammal expression vector of the DsRed-Express2 reporter system. After transformation of HEK293 cells, lentiviruses expressing miR-LacZ or miR-17 were introduced into a stable transformant. One week later, the intracellular expression level of DsRed-Express2 was analyzed by FACS. […] (t-test, n (≧3000 cells)=3, **P<0.01). Bars and error bars represent the mean+s.e.m for each condition.

p38 = test: Western blotting of p38 expression in neurospheres; type: cell-based, mouse; details: p2 neurospheres
[2] = system: human fetal brain-derived neurospheres; test: Human neurosphere differentiation assay; type: cell-based; details: human neurospheres treated with inhibitor, vs control
Procedure: as §1, §2

Molecule: miR-106b: miRNA targeting p38, SEQ ID NO: 7, paralog of miR-17 (UAAAGUGCUGACAGUGCAGAU; listed as RNA, chemistry not fully specified; listed as Mus musculus)
- neuronal differentiation (βIII-tubulin-positive neurons) of p2 neurospheres (p2 neurospheres): led to a neuronal phenotype; also recorded: stronger than that of miR-106a

Molecule: miR-17: miRNA targeting p38, SEQ ID NO: 5, overexpressed by lentivirus (guide CAAAGUGCUUACAGUGCAGGUAG; listed as Mus musculus)
- differentiation of p2 neurospheres in presence of gliogenic cytokines (p2 neurospheres; LIF (10 ng/ml) and BMP2 (100 ng/ml) during differentiation, p2 stage): differentiated exclusively into neurons; also recorded: did not undergo gliogenesis
- neuropotency of p3 neurospheres (p2 neurospheres; lentiviral infection at onset of p3 stage, within 1 week): marked recovery of neuropotency; also recorded: restored neuropotency of mouse p3 neurospheres
- neuronal differentiation (βIII-tubulin-positive neurons) of p2 neurospheres (p2 neurospheres): replicated the phenotype induced by the intact miR-17-92 cluster
- infected cells fated to become neurons in the cerebral cortex (developing mouse brain): 97.6%
- CpG methylation of Gfap promoter (Gfap promoter; p2 neurosphere stage, overexpression from p0): no significant changes in the extent of CpG methylation
- DNA methylation status of the Gfap promoter (Gfap promoter; p3 neurospheres): did not change significantly
- DsRed-Express2 reporter expression linked to Mp38 sensor / interaction with p38 mRNA [1]: direct interaction; also recorded: caused a decrease in DsRed-Express2
- p38 protein expression (p38): suppressed p38 expression at p2 stage

Molecule: C[S+]([O-])c1ccc(-c2nc(-c3ccncc3)c(-c3ccc(F)cc3)[nH]2)cc1 (stereo not drawn) [SB203580, reference compound]
- percentage of neurons differentiated from p2 neurospheres (neuropotency) (p2 neurospheres; mouse p2 neurospheres, treatment with inhibitor during growth, vs control): showed higher neuropotency than controls; also recorded: increased the percentage of neurons differentiated from p2 neurospheres
- percentage of neurons differentiated from human neurospheres (neuropotency) [2]: restored neuropotency; also recorded: increased the percentage of neurons differentiated from the neurospheres

Molecule: miR-106a: miRNA targeting p38, SEQ ID NO: 6, paralog of miR-17 (CAAAGUGCUAACAGUGCAGGUAG; listed as RNA, chemistry not fully specified; listed as Mus musculus)
- neuronal differentiation (βIII-tubulin-positive neurons) of p2 neurospheres (p2 neurospheres): led to a neuronal phenotype
